Laboratory results taken from patent US20080312241A1, “Cicletanine and PKC inhibitors in the treatment of pulmonary and cardiac disorders” (Gilead Sciences, Inc., priority 2007, published 2008).

What was measured:
[1] = tested on: WHO class II pulmonary hypertension patients; assay: Oral cicletanine 50 mg daily in WHO class II pulmonary hypertension patients; assay type: in vivo, human
Description: When dosed orally once daily at 50 mg daily, improvements in functional status as measured by improved 12 minute walking distance were observed.
Another embodiment comprises the use of 50 mg oral daily doses of racemic cicletanine for treatment of Class II Pulmonary Hypertension, resulting in improved walking distance values.

[2] = tested on: human subject with heart failure; assay: Oral cicletanine 150 mg daily in a human subject with heart failure; assay type: in vivo; conditions: oral 150 mg daily
Description: Natriuretic peptide level, a marker of heart failure is improved by oral administration of 150 mg of Cicletanine daily to a human subject with heart failure.

[3] = tested on: nitric oxide in vascular tissue; assay: Nitric oxide levels in vascular tissue
[4] = Tolerance and systemic blood pressure effects of cicletanine in patients; assay type: in vivo, human
Description: We have unexpectedly found good tolerance of Cicletanine in some patient populations at doses up to 400 mg. […] This is particularly effective by use of means to reduce or modulate the magnitude of the kaliuretic, natriuretic and diuretic effects of Cicletanine. As part of aspects of the present invention, and as described below, we have also invented several means of accomplishing this objective.
In accordance of the other embodiments of the present invention, an oral therapeutic formulation is disclosed wherein sufficient cicletanine is contained to improve pulmonary hemodynamics without excessive lowering of systemic blood pressure. Excessive reduction of systemic blood pressure has been a limiting side effect in many agents potentially useful for treatment of pulmonary hypertension. […] Use of appropriate delivery or other mechanisms to optimize blood levels of individual isomers will allow even higher dosing without adverse impacts on systemic blood pressures.
In accordance with some embodiments of the present invention, an oral formulation is disclosed, comprising a therapeutically effective amount of cicletanine alone or in combination with a second agent such that the overall formulation improves pulmonary hemodynamics without inappropriately lowering systemic blood pressure. […]

[5] = tested on: Class III Pulmonary Hypertension; assay: Oral cicletanine 50 mg daily in Class III pulmonary hypertension (associated with left-sided heart failure); assay type: in vivo, human
Description: Yet another embodiment comprises the use of 50 mg oral daily doses of racemic cicletanine for treatment of Class III Pulmonary Hypertension, resulting in improved NYHA functional status.

[6] = tested on: patient with idiopathic pulmonary arterial hypertension; assay: Human case (Example 1): oral once daily cicletanine in a patient with idiopathic pulmonary arterial hypertension (Class I); assay type: in vivo; conditions: for 6-minute walking distance: less than 30 meters immediately prior to initiation; for levels of N-terminal pro-B-type natriuretic peptide: 4409 immediately prior to therapy
Description: A successful clinical trial of one of the embodiments comprised use of racemic cicletanine with the dosage initiated at 50 mg daily and titrated as tolerated to 150 mg daily in a patient with Class I Pulmonary Hypertension.
A patient with idiopathic pulmonary arterial hypertension, despite having been for some time on high doses of all three classes of approved pulmonary hypertension drugs (endothelin receptor antagonist, prostacyclin, and PDE5 inhibitor), was in heart failure and deteriorating rapidly. The patient had finally been stabilized in the intensive care unit with continuously inhaled nitric oxide. Cicletanine therapy was inititiated—oral once daily, titrating from 50 mg to 150 mg/day over three days—day 1 at 50 mg, day 2 at 100 mg, day 3 and thereafter at 150 mg. Within three days from initiation of cicletanine therapy, the patient was weaned off nitric oxide and released from the intensive care unit; they were home within 5 days of initiation of cicletanine treatment. The patient has been on the cicletanine therapy for four and a half months.
The patient has manifested a significant improvement in 6-minute walking distance, which was less than 30 meters immediately prior to cicletanine initiation, and was over 200 meters after one month of cicletanine therapy and was over 400 meters from the second month of cicletanine therapy onward.
Immediately prior to cicletanine therapy the marker was at 4409; within a few days of cicletanine therapy biomarker levels had fallen to less than 2000, and have stayed near 2000 for approximately four months.
The patient, formerly bedridden, is now able to perform housework and take regular exercise.

[7] = 50 mg daily titrated to 150 mg daily, patient with Class I Pulmonary Hypertension

For Cc1ncc2c(c1O)COC2c1ccc(Cl)cc1 (racemic) [cicletanine], the “12 minute walking distance (functional status)” value ([1]; oral once daily 50 mg, WHO class II patients) was “improved”, the “Natriuretic peptide level (marker of heart failure)” value [2] was “improved” and the “tachyphylaxis to its own nitric oxide effects” value [3] was “avoids tachyphylaxis”. The “levels of nitric oxide in vascular tissue” value ([3]; persistent across concentrations corresponding to human doses from 1 mg daily to several thousand milligrams daily) was “increased levels”, the systemic blood pressure ([4]; human, in vivo) was “tends not to lower” and the “doses with good tolerance” value ([4]; some patient populations) was “up to 400 mg”. The “hemodynamic and clinical change from baseline” value ([5]; pulmonary hypertension associated with left-sided heart failure) was “favorable, long-term hemodynamic and clinical improvements”, the 6-minute walking distance ([6]; after one month of cicletanine therapy (150 mg/day oral)) was “over 200 meters” and the “levels of N-terminal pro-B-type natriuretic peptide” value ([6]; for approximately four months of therapy) was ~2000. For the same compound, the quality of life ([6]; formerly bedridden, now able to perform housework and take regular exercise) was “improved significantly”, the 6-minute walking distance ([6]; from the second month of cicletanine therapy onward) was “over 400 meters” and the “time from initiation of treatment until home” value ([6]; titrating from 50 mg to 150 mg/day) was ≤ 5 days. For the same compound, the “time from initiation of therapy until weaned off nitric oxide and released from the intensive care unit” value ([6]; titrating from 50 mg to 150 mg/day over three days) was “three” and the “levels of N-terminal pro-B-type natriuretic peptide” value ([6]; within a few days of cicletanine therapy) was “less than 2000”.
In the case of Cc1ncc2c(c1O)COC2c1ccc(Cl)cc1 (racemic) [racemic cicletanine], the walking distance values ([1]; 50 mg oral daily doses, Class II Pulmonary Hypertension) was “improved”, the NYHA functional status ([5]; 50 mg oral daily doses, Class III Pulmonary Hypertension) was “improved” and the “increase in walking distance” value [6, 7] was “more than 12 fold”. For the same compound, the “natriuretic peptide serum levels” value [6, 7] was “substantial reductions”.
With Cc1ncc2c(c1O)COC2c1ccc(Cl)cc1 (single isomer, unassigned; (-)) [(−) cicletanine] the “nitric oxide enhancing effect, (−) versus (+) cicletanine” value ([3]; compared with (+) cicletanine) was “more prominent”.
